From US12479847B2 (DANA-FARBER CANCER INSTITUTE, INC., priority 2019, dated 2025)
Read-outs that look alike come from different tables or passages of the source.

Key:
Assay in all cases: KINOMEscan (ScanMAX) kinase profiling
Type in all cases: binding
[1] = biological target: T1, panel of 468 kinases (Homo sapiens, UniProt P08922); details: ROS1; 1 μM; read-out: % control
T1 construct: purchased KINOMEscan (ScanMAX) service

[2] = biological target: T2, panel of 468 kinases (Homo sapiens, UniProt Q16539); details: p38-alpha; 1 μM; read-out: % control
T2 construct: purchased KINOMEscan (ScanMAX) service

[3] = biological target: T3, panel of 468 kinases (Homo sapiens, UniProt P04629); details: TRKA; 1 μM; read-out: % control
T3 construct: purchased KINOMEscan (ScanMAX) service

[4] = biological target: T4, panel of 468 kinases (Homo sapiens, UniProt P11802); details: 1 μM, read-out: % control
T4 construct: purchased KINOMEscan (ScanMAX) service

[5] = biological target: T5, panel of 468 kinases (Homo sapiens, UniProt Q15349); details: 1 μM, read-out: % control
T5 construct: purchased KINOMEscan (ScanMAX) service

[6] = biological target: T6, panel of 468 kinases (Homo sapiens, UniProt Q9UEW8); details: STK39; 1 μM; read-out: % control
T6 construct: purchased KINOMEscan (ScanMAX) service

[7] = biological target: T7, panel of 468 kinases (Homo sapiens, UniProt O14578); details: CIT; 1 μM; read-out: % control
T7 construct: purchased KINOMEscan (ScanMAX) service

[8] = biological target: T8, panel of 468 kinases (Homo sapiens, UniProt P14616); details: INSRR; 1 μM; read-out: % control
T8 construct: purchased KINOMEscan (ScanMAX) service

[9] = biological target: T9, panel of 468 kinases (Homo sapiens, UniProt Q8WTQ7); details: GRK7; 1 μM; read-out: % control
T9 construct: purchased KINOMEscan (ScanMAX) service
T9 sequence (Q8WTQ7 1-553): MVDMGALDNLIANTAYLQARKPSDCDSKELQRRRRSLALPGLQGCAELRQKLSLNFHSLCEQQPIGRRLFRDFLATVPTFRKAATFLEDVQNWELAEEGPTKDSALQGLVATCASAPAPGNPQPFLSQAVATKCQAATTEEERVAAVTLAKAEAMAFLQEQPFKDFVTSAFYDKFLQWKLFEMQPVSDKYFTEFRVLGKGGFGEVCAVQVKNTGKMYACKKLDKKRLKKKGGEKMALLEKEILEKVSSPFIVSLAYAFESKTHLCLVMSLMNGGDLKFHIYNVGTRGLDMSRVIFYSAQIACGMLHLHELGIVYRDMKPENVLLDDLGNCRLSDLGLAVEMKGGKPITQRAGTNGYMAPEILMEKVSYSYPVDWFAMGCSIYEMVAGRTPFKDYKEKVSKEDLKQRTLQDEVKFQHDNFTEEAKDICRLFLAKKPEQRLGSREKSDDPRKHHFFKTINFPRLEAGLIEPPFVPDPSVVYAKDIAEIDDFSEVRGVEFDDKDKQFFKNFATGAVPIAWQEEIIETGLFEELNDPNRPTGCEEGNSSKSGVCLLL

[10] = biological target: T10, panel of 468 kinases (Homo sapiens, UniProt P42336); details: PIK3CA; 1 μM; read-out: % control
T10 construct: purchased KINOMEscan (ScanMAX) service

[11] = biological target: T11, panel of 468 kinases (Homo sapiens, UniProt P54762); details: EPHB1; 1 μM; read-out: % control
T11 construct: purchased KINOMEscan (ScanMAX) service
T11 sequence (P54762 18-984): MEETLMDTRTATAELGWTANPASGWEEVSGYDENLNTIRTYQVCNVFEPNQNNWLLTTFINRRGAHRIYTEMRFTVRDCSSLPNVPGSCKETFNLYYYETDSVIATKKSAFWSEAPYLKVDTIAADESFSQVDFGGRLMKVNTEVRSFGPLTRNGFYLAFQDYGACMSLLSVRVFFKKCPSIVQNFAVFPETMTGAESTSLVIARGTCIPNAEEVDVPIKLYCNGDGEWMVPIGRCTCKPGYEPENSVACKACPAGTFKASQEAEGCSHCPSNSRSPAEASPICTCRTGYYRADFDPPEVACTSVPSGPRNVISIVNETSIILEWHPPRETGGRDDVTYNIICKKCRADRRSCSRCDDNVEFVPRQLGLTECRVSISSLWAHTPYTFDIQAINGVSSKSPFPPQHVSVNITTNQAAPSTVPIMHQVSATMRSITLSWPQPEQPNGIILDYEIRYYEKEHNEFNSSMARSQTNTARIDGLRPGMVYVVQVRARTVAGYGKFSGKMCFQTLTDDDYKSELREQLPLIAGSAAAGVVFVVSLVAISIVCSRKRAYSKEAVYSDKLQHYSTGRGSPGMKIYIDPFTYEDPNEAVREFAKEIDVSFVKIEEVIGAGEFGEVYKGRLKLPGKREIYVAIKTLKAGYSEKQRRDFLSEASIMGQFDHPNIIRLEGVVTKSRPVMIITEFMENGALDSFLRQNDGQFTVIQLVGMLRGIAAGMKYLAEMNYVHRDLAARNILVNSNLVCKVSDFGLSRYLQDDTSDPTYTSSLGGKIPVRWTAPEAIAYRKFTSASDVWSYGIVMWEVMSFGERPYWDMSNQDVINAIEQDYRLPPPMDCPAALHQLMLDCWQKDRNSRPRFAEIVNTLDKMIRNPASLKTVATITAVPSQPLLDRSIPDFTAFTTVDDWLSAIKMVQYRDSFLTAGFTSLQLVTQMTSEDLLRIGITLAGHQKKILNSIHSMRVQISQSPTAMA

[12] = biological target: T12, panel of 468 kinases (Homo sapiens, UniProt P00533, G719C); details: EGFR(G719C); 1 μM; read-out: % control
T12 construct: purchased KINOMEscan (ScanMAX) service

[13] = biological target: T13, panel of 468 kinases (Homo sapiens, UniProt Q08345); details: DDR1; 1 μM; read-out: % control
T13 construct: purchased KINOMEscan (ScanMAX) service

[14] = biological target: T14, panel of 468 kinases (Homo sapiens, UniProt P21802); details: FGFR2; 1 μM; read-out: % control
T14 construct: purchased KINOMEscan (ScanMAX) service

T8 sequence (P14616 27-1297): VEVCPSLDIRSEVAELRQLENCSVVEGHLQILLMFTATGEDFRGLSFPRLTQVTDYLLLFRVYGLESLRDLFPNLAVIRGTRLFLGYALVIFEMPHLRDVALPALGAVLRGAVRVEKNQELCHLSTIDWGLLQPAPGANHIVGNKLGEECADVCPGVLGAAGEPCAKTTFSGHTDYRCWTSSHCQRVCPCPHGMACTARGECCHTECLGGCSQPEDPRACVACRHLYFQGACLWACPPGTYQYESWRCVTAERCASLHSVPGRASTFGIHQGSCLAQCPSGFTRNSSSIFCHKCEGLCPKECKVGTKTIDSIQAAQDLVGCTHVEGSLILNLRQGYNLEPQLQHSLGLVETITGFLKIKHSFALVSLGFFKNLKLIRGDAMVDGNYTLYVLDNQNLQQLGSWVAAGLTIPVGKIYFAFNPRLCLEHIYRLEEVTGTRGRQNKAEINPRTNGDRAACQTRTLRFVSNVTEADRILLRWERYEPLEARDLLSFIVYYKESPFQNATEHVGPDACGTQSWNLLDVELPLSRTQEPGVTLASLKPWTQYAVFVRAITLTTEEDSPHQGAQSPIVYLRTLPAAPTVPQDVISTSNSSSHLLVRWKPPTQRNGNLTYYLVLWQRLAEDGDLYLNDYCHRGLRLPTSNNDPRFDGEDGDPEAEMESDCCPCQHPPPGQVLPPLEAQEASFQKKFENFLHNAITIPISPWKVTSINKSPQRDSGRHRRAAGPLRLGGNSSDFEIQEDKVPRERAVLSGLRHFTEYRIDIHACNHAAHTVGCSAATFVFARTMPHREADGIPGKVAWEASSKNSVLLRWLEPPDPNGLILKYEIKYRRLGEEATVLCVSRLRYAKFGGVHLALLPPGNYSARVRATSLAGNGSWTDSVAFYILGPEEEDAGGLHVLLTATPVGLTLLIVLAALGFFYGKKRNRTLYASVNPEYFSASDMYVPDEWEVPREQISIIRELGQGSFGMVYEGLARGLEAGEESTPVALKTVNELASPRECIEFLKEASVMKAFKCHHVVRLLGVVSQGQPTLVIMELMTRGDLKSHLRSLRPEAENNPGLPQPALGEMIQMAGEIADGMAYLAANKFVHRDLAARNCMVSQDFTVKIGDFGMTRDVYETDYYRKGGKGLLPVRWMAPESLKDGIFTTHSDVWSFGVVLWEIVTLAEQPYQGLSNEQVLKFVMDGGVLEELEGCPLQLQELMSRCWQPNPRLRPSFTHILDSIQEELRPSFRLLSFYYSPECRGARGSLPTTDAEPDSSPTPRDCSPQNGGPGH
T10 sequence (P42336 whole entry): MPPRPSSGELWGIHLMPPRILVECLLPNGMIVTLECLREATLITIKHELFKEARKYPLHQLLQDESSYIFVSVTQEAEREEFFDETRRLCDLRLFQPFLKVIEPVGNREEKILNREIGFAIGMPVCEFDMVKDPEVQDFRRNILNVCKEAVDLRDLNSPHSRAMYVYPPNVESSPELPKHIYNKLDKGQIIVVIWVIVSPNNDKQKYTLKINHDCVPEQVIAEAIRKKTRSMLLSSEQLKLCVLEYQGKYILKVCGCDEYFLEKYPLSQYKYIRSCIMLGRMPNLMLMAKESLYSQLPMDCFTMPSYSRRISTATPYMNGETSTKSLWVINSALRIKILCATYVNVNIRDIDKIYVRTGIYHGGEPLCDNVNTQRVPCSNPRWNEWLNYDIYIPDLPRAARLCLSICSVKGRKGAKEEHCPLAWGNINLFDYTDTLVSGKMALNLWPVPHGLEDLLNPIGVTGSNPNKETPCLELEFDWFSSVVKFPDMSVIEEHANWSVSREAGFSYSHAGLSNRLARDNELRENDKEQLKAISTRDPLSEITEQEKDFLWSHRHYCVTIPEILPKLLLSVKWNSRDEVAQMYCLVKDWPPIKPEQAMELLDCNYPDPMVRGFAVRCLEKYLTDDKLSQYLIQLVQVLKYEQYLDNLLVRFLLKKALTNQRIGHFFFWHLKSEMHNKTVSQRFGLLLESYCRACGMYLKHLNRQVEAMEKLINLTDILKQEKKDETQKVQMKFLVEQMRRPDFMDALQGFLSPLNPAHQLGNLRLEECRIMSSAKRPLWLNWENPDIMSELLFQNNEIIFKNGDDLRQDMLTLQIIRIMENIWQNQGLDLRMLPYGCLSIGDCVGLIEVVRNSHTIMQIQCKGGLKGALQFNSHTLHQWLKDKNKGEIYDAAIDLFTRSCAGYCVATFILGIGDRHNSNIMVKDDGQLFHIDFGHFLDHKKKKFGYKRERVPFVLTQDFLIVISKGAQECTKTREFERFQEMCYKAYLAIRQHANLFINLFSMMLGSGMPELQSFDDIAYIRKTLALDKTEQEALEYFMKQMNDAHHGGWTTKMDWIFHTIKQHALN
T2 sequence (Q16539 whole entry): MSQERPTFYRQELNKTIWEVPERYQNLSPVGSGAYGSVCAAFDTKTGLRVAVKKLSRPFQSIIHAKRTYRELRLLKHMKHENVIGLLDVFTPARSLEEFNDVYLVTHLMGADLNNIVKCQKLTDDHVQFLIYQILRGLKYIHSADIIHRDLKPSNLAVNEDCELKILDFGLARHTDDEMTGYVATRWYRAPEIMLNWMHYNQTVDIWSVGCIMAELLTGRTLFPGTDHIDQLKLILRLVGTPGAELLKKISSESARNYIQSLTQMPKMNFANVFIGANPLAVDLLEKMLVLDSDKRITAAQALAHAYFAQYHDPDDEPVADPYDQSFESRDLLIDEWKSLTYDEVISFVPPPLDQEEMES
T1 sequence (P08922 28-2347): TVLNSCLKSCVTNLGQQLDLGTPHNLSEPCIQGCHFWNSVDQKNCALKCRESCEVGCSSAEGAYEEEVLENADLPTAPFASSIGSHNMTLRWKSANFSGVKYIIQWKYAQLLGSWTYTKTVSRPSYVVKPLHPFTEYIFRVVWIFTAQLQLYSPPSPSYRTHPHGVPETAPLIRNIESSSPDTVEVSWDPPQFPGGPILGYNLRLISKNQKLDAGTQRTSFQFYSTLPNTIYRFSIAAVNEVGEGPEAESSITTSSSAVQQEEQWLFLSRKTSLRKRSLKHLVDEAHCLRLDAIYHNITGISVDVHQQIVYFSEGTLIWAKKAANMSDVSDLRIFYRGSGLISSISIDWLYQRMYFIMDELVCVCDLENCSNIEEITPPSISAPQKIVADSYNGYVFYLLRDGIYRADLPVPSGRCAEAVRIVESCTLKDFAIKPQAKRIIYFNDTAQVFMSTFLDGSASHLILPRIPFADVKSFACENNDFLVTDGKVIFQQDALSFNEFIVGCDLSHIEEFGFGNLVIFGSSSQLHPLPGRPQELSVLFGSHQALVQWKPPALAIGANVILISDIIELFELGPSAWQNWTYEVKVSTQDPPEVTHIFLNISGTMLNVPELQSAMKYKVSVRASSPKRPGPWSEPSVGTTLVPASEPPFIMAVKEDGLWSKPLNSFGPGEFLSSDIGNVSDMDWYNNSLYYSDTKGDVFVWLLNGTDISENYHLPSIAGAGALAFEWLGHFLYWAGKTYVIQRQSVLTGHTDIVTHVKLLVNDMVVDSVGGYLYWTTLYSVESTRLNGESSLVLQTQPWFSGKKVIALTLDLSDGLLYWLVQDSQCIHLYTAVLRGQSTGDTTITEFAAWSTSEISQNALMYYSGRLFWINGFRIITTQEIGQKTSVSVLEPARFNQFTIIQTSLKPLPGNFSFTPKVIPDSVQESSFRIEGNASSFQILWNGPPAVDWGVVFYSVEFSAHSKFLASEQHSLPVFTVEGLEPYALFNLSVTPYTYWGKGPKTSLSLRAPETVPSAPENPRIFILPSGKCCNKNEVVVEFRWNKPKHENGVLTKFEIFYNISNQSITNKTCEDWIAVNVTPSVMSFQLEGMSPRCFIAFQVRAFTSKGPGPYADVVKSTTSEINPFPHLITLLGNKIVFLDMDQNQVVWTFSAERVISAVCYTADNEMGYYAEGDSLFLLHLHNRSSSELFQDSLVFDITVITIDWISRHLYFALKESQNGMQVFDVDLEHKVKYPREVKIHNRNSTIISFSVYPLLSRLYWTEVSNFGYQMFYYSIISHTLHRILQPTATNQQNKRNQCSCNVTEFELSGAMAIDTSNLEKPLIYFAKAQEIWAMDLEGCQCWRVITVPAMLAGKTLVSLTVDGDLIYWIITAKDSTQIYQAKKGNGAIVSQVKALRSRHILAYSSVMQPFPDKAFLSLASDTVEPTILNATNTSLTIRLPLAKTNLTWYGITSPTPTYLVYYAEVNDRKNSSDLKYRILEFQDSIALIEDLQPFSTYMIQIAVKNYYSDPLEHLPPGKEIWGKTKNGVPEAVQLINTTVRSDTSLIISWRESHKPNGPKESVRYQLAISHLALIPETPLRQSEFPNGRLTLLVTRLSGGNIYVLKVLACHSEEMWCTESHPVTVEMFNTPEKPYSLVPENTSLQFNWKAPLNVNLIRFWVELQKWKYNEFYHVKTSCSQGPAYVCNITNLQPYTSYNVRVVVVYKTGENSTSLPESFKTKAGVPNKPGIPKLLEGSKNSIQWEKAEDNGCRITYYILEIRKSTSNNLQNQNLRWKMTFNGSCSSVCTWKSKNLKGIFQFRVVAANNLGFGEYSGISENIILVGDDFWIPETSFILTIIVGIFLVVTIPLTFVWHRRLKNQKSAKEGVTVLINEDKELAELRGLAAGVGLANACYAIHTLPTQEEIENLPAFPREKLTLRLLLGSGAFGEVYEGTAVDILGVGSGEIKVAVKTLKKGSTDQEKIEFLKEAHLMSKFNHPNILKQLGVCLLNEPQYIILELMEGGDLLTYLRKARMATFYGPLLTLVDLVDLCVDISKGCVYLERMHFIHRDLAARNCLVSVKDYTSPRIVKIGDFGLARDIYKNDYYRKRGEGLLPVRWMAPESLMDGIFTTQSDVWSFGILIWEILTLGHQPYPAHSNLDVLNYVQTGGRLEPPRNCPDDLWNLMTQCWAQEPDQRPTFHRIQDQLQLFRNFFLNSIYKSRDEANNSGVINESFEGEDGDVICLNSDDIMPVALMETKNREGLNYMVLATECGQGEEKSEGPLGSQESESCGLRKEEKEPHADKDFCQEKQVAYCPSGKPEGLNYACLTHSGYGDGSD

Row | SMILES | remaining binding at 1 µM [1] | remaining binding at 1 µM [2] | remaining binding at 1 µM [3] | remaining binding at 1 µM ([4]; CDK4-cyclinD1) | remaining binding at 1 µM ([4]; CDK4-cyclinD3) | remaining binding at 1 µM ([4]; CDK4) | remaining binding at 1 µM ([5]; RSK3(Kin.Dom.1-N-terminal)) | remaining binding at 1 µM ([5]; RSK3(Kin.Dom.2-C-terminal)) | remaining binding at 1 µM [6] | remaining binding at 1 µM [7] | remaining binding at 1 µM [8] | remaining binding at 1 µM [9] | remaining binding at 1 µM [10] | remaining binding at 1 µM [11] | remaining binding at 1 µM [12] | remaining binding at 1 µM [13] | remaining binding at 1 µM [14]
1 | CNc1nc(Nc2ccc(C(=O)N3CCC(N4CCOCC4)CC3)c3c2OCO3)nc2[nH]cc(Cl)c12 [Compound 75, (7-((5-chloro-4-(methylamino)-7H-pyrrolo[2,3-d]pyrimidin-2-yl)amino)benzo[d][1,3]dioxol-4-yl)(4-morpholinopiperidin-1-yl)methanone] | 86% | 100% | 70% | 81% | 100% | 80% | 100% | 57% | 5.4% | 35% | 88% | 100% | 93% | 100% | 100% | 100% | 97%
2 | CNc1nc(Nc2ccc(S(=O)(=O)N3CCC(N4CCOCC4)CC3)cc2OC)nc2[nH]cc(Cl)c12 [Compound 12, 5-chloro-N2-(2-methoxy-4-((4-morpholinopiperidin-1-yl)sulfonyl)phenyl)-N4-methyl-7H-pyrrolo[2,3-d]pyrimidine-2,4-diamine] | 85% | 100% | 100% | 74% | 100% | 68% | 100% | 70% | 4.8% | 85% | 85% | 100% | 97% | 88% | 97% | 100% | 100%
3 | CNc1nc(Nc2ccc(P3(=O)CCN(C4CCOCC4)CC3)cc2OC)nc2[nH]cc(Cl)c12 [Compound 77, 4-(4-((5-chloro-4-(methylamino)-7H-pyrrolo[2,3-d]pyrimidin-2-yl)amino)-3-methoxyphenyl)-1-(tetrahydro-2H-pyran-4-yl)-1,4-azaphosphinane 4-oxide] | 54% | 100% | 100% | 87% | 100% | 71% | 100% | 20% | 0.5% | 93% | 62% | 99% | 100% | 100% | 99% | 100% | 100%
